Series [1] deals with T1, muscarinischen Rezeptoren (Herz) (Rattus norvegicus, UniProt P10980).
T1 construct: Das Gesamtherz wurde mit einer Schere zerkleinert; Alle Organe wurden abschließend in einem Potter homogenisiert; from tissue; host or cells: rat whole heart homogenate
T1 sequence (P10980 1-466): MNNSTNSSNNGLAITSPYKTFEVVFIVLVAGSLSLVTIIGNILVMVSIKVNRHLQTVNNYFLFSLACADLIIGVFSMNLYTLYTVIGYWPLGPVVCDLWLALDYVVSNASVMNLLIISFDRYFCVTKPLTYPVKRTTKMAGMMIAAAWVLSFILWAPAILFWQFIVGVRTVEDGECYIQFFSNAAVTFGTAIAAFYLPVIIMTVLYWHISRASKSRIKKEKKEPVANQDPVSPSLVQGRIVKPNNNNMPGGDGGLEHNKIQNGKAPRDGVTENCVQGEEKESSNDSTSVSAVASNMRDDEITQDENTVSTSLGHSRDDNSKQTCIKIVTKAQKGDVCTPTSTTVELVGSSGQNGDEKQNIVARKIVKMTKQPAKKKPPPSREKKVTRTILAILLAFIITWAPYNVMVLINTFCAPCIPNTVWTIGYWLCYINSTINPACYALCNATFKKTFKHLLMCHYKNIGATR
In words: biochemical. In kind it is binding, Ratte. The note with it: whole heart homogenate 1:400, 0,3 nmolar 3H-NMS, 30°C, 45 min; read-out: Rezeptor-Bindungs-Tests -log IC50 Herz (converted). An excerpt: Als Organspender dienten männliche Sprague-Dawley-Ratten mit 180-220 g Körpergewicht. Nach Entnahme von Herz und Submandibularis wurden alle weiteren Schritte in eiskaltem Hepes-HCI-Puffer (pH 7,4; 100 m molar NaCI, 10 m molar MgCI2) vorgenommen. Das Gesamtherz wurde mit einer Schere zerkleinert. Alle Organe wurden abschließend in einem Potter homogenisiert.
Für den Bindungstest wurden die Organhomogenate in folgender Weise verdünnt: • Gesamtherz 1:400 • Submandibularis 1:400
Die Inkubation der Organhomogenate erfolgte bei einer bestimmten Konzentration des Radioliganden und einer Konzentrationsreihe der nichtradioaktiven Testsubstanzen im Eppendorf-Zentrifugenröhrchen bei 30°C. Die Inkubationsdauer betrug 45 Minuten. Als Radioligand wurde 0,3 nmolar ^3H-N-Methylscopolamin (^3H-NMS) verwendet. Die Inkubation wurde durch Zugabe von eiskaltem Puffer mit nachfolgender Vakuumfiltration beendet. Die Filter wurden mit kaltem Puffer gespült und ihre Radioaktivität bestimmt. Sie repräsentiert die Summe von spezifischer und unspezifischer Bindung von ^3H-NMS. Der Anteil der unspezifischen Bindung wurde definiert als jene Radioaktivität die in Anwesenheit von 1 u. molar Quinciidinylbenzilat gebunden wurde. Es wurden immer Vierfachbestimmungen vorgenommen. Die ICso-Werte der nicht markierten Testsubstanzen wurden graphisch bestimmt. Sie repräsentieren jene Konzentration der Testsubstanz, bei welcher die spezifische Bindung von ^3H-NMS an die muscarinischen Rezeptoren in den verschiedenen Organen um 50 % gehemmt wurde.

The test system of the next series is M2. Put plainly: M2 activity in the rat: inhibition of bradycardia induced by vagus stimulation. In kind it is in vivo, Ratte. The conditions noted are these: i.v.; dose reducing vagal bradycardia by 50%; 5 min after injection. As for the experimental part:
(§1) Die angewandte Methode wurde von Hammer und Giachetti (Life Sciences 31, 2991-2998 (1982)) beschrieben. 5 Minuten nach intravenöser Injektion steigender Dosen der Substanz wurden entweder der rechte Vagus elektrisch stimuliert (Frequenz: 25 Hz; Pulsbreite: 2ms; Reizdauer: 30s; Voltzahl: supramaximal) oder 0,3 mg/kg McN-A-343 in männliche THOM-Ratten intravenös injiziert. Die durch Vagusstimulation hervorgerufene Bradykardie und der durch McN-A-343 verursachte Blutdruckanstieg wurden bestimmt. Die Dosis der Substanzen, die entweder die vagale Bradykardie (M2) oder den Blutdruckanstieg (Mi) um 50% verminderte, wurde graphisch ermittelt. Ergebnisse siehe Tabelle II.

For a further series, the system named is M1. Put plainly: M1 activity in the rat: inhibition of blood pressure rise caused by McN-A-343. The class given is in vivo, Ratte. The note with it: i.v.; dose reducing McN-A-343 (0,3 mg/kg) blood pressure rise by 50%; 5 min. As for the experimental part:
as §1

The subject of a further series is Speichelsekretion. Put plainly: Inhibition of pilocarpine-induced salivation in the rat. In kind it is in vivo, Ratte. The conditions noted are these: for ED50: Rattus norvegicus, iv, dose reducing saliva volume by 50%, pilocarpine 2 mg/kg s.c., read-out: Speichelsekretionshemmung (Ratte) ED50; for Verhältnis Speichelsekretionshemmung zu M2-Aktivität: ratio of ED50 salivation inhibition to ED50 M2 activity, rat. On the procedure: Nach Lavy und Mulder (Arch. int. Pharmacodyn. 178, 437-445, (1969)) erhielten mit 1,2 g/kg Urethan narkotisierte männliche THOM-Ratten steigende Dosen der Substanz i.v.. Die Speichelsekretion wurde durch s.c. Gabe von 2 mg/kg Pilocarpin ausgelöst. Der Speichel wurde mit Fließpapier aufgesaugt, die von ihm eingenommene Fläche alle 5 Minuten planimetrisch bestimmt. Die Dosis der Substanz, die das Speichelvolumen um 50% verminderte, wurde graphisch ermittelt. Ergebnisse siehe Tabelle 11.

Series [2] addresses T2, muskarinischen Rezeptoren (Atrium) (Rattus norvegicus, UniProt P10980).
T2 construct: wurden die Tiere getötet, das Herz, die Bronchien und die Tränendrüsen entnommen; from tissue; host or cells: rat heart (atrium, ventricle), in vivo labelling with 3H-NMS
T2 sequence (P10980 1-466): T1 sequence (P10980 1-466)
In words: Receptor binding test in vivo (3H-NMS), heart atrium. The note with it: rat, iv, 0.5 h; read-out: ID50 Herz Atrium. On the set-up: species or system Ratten. The source says:
Für diese Experimente wurden weibliche Ratten mit einem Körpergewicht von ca. 200 g verwendet. Vor Versuchsbeginn wurden die Tiere mit einer Dosis von 1,25 g/kg Urethan narkotisiert. Die Tiere erhielten jeweils die vorgesehene Dosis der Prüfsubstanz durch i.v. Injektion. […] Nach weiteren 15 Minuten wurden die Tiere getötet, das Herz, die Bronchien und die Tränendrüsen entnommen. Diese Organe wurden in Soluene R aufgelöst und die Radioaktivität bestimmt. Diese Messwerte wurden als Totalbindung angenommen. […] Aus diesen Versuchen wurden für die einzelnen Organe IDso-Werte ermittelt. Die IDso-Werte sind Dosen der Prüfsubstanzen, die 50% der spezifischen Bindung von ^3H-NMS an die muskarinischen Rezeptoren der jeweiligen Organe hemmten.

In series [3] the test system is Acetylcholinwirkung auf Herzfrequenz. Put plainly: Inhibition of the acetylcholine effect on heart rate. The class given is in vivo, Meerschweinchen. The conditions noted are these: Cavia porcellus, 5 min; anaesthetised guinea pig, acetylcholine 5 min after test substance, heart rate. The source says:
(§2) Dabei wurde die Herzfrequenz durch extrakorporale Ableitung des EKG, der Ausatemwiderstand nach Konzett-Rößler und die Kontraktion […] an den untersuchten Organen wurden Dosis-Wirkungskurven aufgenommen und daraus -log EDso-Werte bestimmt. Ergebnisse siehe Tabelle V.

Series [4] relates to Acetylcholinwirkung auf Bronchien. In words: Inhibition of the acetylcholine effect on bronchi. The class given is in vivo, Meerschweinchen. The conditions noted are these: Cavia porcellus, 5 min; anaesthetised guinea pig, acetylcholine 5 min after test substance, expiratory resistance; read-out: -log ED50 Bronchien (converted).
Text: as §2

Series [5] relates to Acetylcholinwirkung auf Blase. In words: Inhibition of the acetylcholine effect on bladder. In kind it is in vivo, Meerschweinchen. The conditions noted are these: Cavia porcellus, 5 min; anaesthetised guinea pig, acetylcholine 5 min after test substance, bladder contraction; read-out: -log ED50 Blase (converted).
Text: as §2

The nature of the next series: Solubility in water. In kind it is physicochemical. The conditions noted are these: for Löslichkeit in Wasser: result in words; for solubility: water, read-out: Löslichkeit in Wasser.
The target in series [6] is muskarinischen Rezeptoren (Tränendrüsen) (Rattus norvegicus, UniProt P08483). Put plainly: in vivo. The note with it: iv, 0.5 h, read-out: ID50 Tränendrüsen.

Structures can show the parent of a compound that is named as a salt. Where two headings read alike, the source gives them in different places.

The values below come from patent EP0306698A1, “Condensed diazepinones, processes for their preparation, and medicaments containing these compounds” (Dr. Karl Thomae GmbH, priority 1987, dated 1989).

One may read the IC50 as the point on the concentration scale where inhibition reaches its midpoint.

muskarinischen Rezeptoren (Tränendrüsen), sequence (P08483 whole entry): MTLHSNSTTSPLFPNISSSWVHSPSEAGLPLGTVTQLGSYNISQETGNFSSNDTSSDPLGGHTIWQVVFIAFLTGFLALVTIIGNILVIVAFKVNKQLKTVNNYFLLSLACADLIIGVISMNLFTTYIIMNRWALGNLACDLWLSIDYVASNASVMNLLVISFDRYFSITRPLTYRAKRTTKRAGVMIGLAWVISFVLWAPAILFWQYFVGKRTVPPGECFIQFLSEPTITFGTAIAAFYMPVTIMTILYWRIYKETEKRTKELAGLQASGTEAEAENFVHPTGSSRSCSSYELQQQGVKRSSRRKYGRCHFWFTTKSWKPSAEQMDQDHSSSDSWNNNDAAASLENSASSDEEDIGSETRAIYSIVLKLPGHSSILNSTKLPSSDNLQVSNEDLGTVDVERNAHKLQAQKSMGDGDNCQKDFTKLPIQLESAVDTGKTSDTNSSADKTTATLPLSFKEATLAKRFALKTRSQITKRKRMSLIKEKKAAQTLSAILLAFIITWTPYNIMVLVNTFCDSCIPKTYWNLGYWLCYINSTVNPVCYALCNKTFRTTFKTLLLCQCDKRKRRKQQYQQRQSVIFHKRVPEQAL

Take `O=C1Nc2cccnc2N(C(=O)N2CCCC(CCCN3CCCCC3)C2)c2ccccc21` (stereo not drawn) [A, 5,11-Dihydro-11-[[3-[3-(1-piperidinyl)propyl]-1-piperidinyl]carbonyl]-6H-pyrido[2,3-b][1,4]-benzodiazepin-6-on]: the IC50 in [1] was 2 nM. In addition, in the series with M2, the “M2-Aktivität (Ratte) ED50” value was 6,9 µg/kg. Further, the “M1-Aktivität (Ratte) ED50” value in the series on M1 is listed as 49 µg/kg. In addition, the ED50 was 0.035 mg/kg in the series with Speichelsekretion; 0.01 mg/kg in series [2]; 0.0871 µmol/kg in series [3]; 0.117 µmol/kg in [4]; 1.35 µmol/kg in [5]; 0.2 mg/kg in [6]. Also, the “Verhältnis Speichelsekretionshemmung zu M2-Aktivität” value in the series with Speichelsekretion stood at 5. Moreover, the “Löslichkeit in Wasser” value in “Solubility in water” (methanesulfonate salt) is given as “leicht löslich”. The solubility in “Solubility in water” (hydrochloride salt) is around 2000 µg/mL; in the series “Solubility in water” (salt with N-Cyclohexylsulfamidsäure) it was around 10000 µg/mL.
On to `Cl.O=C1Nc2cccnc2N(C(=O)N2CCCC(CCCN3CCCC3)C2)c2ccccc21` (stereo not drawn) [B, 5,11-Dihydro-11-[[3-[3-(1-pyrrolidinyl)propyl]-1-piperidinyl]carbonyl]-6H-pyrido[2,3-b][1,4]-benzodiazepin-6-on-hydrochlorid], for which, in [1], the IC50 is 10 nM. In addition, the values for the ED50 in series [3], in [4] and in [5] were 0.0661 µmol/kg, 0.0871 µmol/kg and 0.692 µmol/kg, respectively. In addition, the solubility in “Solubility in water” (hydrochloride salt) is around 3000 µg/mL.
Consider `CCN(CC)CCCCC1CCCCN1C(=O)N1c2ccccc2C(=O)Nc2cccnc21` (stereo not drawn) [Beispiel 4, 11-[[2-[4-(Diethyiamino)butyl]-1-piperidinyl]carbonyl]-5,11-dihydro-6H-pyrido[2,3-b][1,4]benzodiazepin-6-on], for which the “Löslichkeit in Wasser” value in the series “Solubility in water” (dihydrochloride) is “wasserlösliche”.
With `CS(=O)(=O)O.O=C1Nc2cccnc2N(C(=O)N2CCCC(CCN3CCCCC3)C2)c2ccccc21` (stereo not drawn) [C, 5,11-Dihydro-11-[[3-[2-(1-piperidinyl)ethyl]-1-piperidinyl]carbonyl]-6H-pyrido[2,3-b][1,4]-benzodiazepin-6-on-methansulfonat], in series [1], the IC50 was 3.02 nM. Also, the “M2-Aktivität (Ratte) ED50” value with M2 was 7,6 µg/kg. In addition, the “M1-Aktivität (Ratte) ED50” value in the series on M1 is listed as 39 µg/kg. The ED50 is 0.058 mg/kg in the series on Speichelsekretion, 0.0427 µmol/kg in [3], 0.0417 µmol/kg in series [4] and 0.355 µmol/kg in series [5]. In the series on Speichelsekretion, the “Verhältnis Speichelsekretionshemmung zu M2-Aktivität” value is 7,6.
For the compound `O=C1Nc2cccnc2N(C(=O)N2CCCC(CCN3CCCC3)C2)c2ccccc21` (stereo not drawn) [D, 5,11-Dihydro-11-[[3-(2-(1-pyrrolidinyl)ethyl]-1-piperidinyl]carbonyl]-6H-pyrido[2,3-b][1,4]-benzodiazepin-6-on-hydrochlorid], in series [1], the IC50 was 6.03 nM. Also, the ED50 in [3] was 0.0479 µmol/kg; in series [4] it was 0.0324 µmol/kg; in series [5] it was 0.708 µmol/kg.
For the compound `CN(CCC1CCCN(C(=O)N2c3ccccc3C(=O)Nc3cccnc32)C1)C1CCCC1` (stereo not drawn) [E, 11-[[3-[2-[(Cyclopentyl)methylamino]ethyl]-1-piperidinyl]carbonyl]-5,11-dihydro-6H-pyrido[2,3-b]-[1,4]-benzodiazepin-6-on-hydrochlorid], the IC50 in series [1] is 3.02 nM. In addition, the figures for the ED50 in series [3], in series [4] and in series [5] were 0.0813 µmol/kg, 0.0977 µmol/kg and 0.891 µmol/kg, respectively.
Regarding `O=C1Nc2cccnc2N(C(=O)N2CCCC(CCN3CCCCCC3)C2)c2ccccc21` (stereo not drawn) [F, 5,11-Dihydro-11-[[3-[2-(hexahydro-1H-1-azepinyl)ethyl]-1-piperidinyl]carbonyl]-6H-pyrido[23-b]-[1,4]benzodiazepin-6-on-hydrochlorid], the IC50 in series [1] was 3.02 nM. For the same compound, the results for the ED50 in series [3], in series [4] and in [5] were 0.0162 µmol/kg, 0.0398 µmol/kg and 0.38 µmol/kg, respectively.
Turning to `O=C1Nc2ccccc2N(C(=O)N2CCCC(CCN3CCCCC3)C2)c2ncccc21` (stereo not drawn) [G, 6,11-Dihydro-11-[[3-[2-(1-piperidinyl)ethyl]-1-piperidinyl]carbonyl]-5H-pyrido[23-b][1,5]-benzodiazepin-5-on], the IC50 in [1] was 3.98 nM. For the same compound, the “M2-Aktivität (Ratte) ED50” value in the series on M2 was 8,13 µg/kg. Besides, the “M1-Aktivität (Ratte) ED50” value in the series on M1 is listed as 7,16 µg/kg. For the same compound, the ED50 was 0.00683 mg/kg in the series with Speichelsekretion, 0.0148 µmol/kg in series [3], 0.0263 µmol/kg in series [4] and 0.302 µmol/kg in series [5]. Besides, the “Verhältnis Speichelsekretionshemmung zu M2-Aktivität” value with Speichelsekretion is reported as 20,00.
Consider `CN1CCN(CC(=O)N2c3ccccc3C(=O)Nc3cccnc32)CC1` [Y, 5,11-Dihydro-11-[(4-methyl-1-piperazinyl)acetyl]-6H-pyrido[2.3-b][1,4]benzodiazepin-6-on, reference compound], for which the ED50 is 0.084 mg/kg in the series on Speichelsekretion, 1.41 µmol/kg in [3], 0.269 µmol/kg in series [4] and 4.37 µmol/kg in [5].
